In patent US8993544B2, “Carbamoylphosphonates as inhibitors and uses thereof” (priority 2009, dated 2015):
Like-named read-outs stand apart in the source and are kept apart here.

Legend:
human MMP-3 = target: T1, human MMP-3 (Homo sapiens, UniProt P08254); assay: Determination of MMP inhibitory potency, MMP-3; type: biochemical
T1 construct: purchased R&D Systems, Minneapolis
Procedure: (§1) Recombinant enzymes, human MMP-1, MMP-2, MMP-3, MMP-8, MMP-9, MMP-12, MMP-13 and TACE (R&D Systems, Minneapolis) were incubated at four different concentrations with the relevant colorimetric or fluorescent peptide substrates (R&D Systems, Minneapolis) for 3 h. The tested compounds were added at four to six different concentrations and the inhibitory potencies expressed in a colorimetric change, was measured by an ELISA or fluorimeter.

human MMP-8 = target: T2, human MMP-8 (Homo sapiens, UniProt P22894); assay: Determination of MMP inhibitory potency, MMP-8; type: biochemical
T2 construct: purchased R&D Systems, Minneapolis
Procedure: as §1

human MMP-9 = target: T3, human MMP-9 (Homo sapiens, UniProt P14780); assay: Determination of MMP inhibitory potency, MMP-9; type: biochemical
T3 construct: purchased R&D Systems, Minneapolis
Procedure: as §1

human MMP-12 = target: T4, human MMP-12 (Homo sapiens, UniProt P39900); assay: Determination of MMP inhibitory potency, MMP-12; type: biochemical
T4 construct: purchased R&D Systems, Minneapolis
Procedure: as §1

human MMP-13 = target: T5, human MMP-13 (Homo sapiens, UniProt P45452); assay: Determination of MMP inhibitory potency, MMP-13; type: biochemical
T5 construct: purchased R&D Systems, Minneapolis
Procedure: as §1

TACE = target: T6, TACE (Homo sapiens, UniProt P78536); assay: Determination of inhibitory potency, TACE; type: biochemical
T6 construct: purchased R&D Systems, Minneapolis
Procedure: as §1

MMP and/or ADAM enzyme = assay: Duration of inhibitory effect on the enzymes inhibited; type: biochemical, human
Procedure: Previously, it has been established that cis-2-aminocyclohexycarbamoyl phosphonic acid (cis-ACCP), listed for the purpose of comparison in Tables 2 and 3 as “control”, was an effective nontoxic, in vivo active antimetastatic compound. […] In the study leading to the subject invention, it was determined that the inhibitory effect could be, and in fact was prolonged by substituting carbamoylphosphonic functionality with aromatic ring functionality as in the compounds of the invention. […]
as §1

MMP-2 [1] = target: T7, MMP-2 (Homo sapiens, UniProt P08253); assay: Determination of MMP inhibitory potency, MMP-2; type: biochemical; set-up: purchased R&D Systems, Minneapolis
T7 sequence (P08253 110-660): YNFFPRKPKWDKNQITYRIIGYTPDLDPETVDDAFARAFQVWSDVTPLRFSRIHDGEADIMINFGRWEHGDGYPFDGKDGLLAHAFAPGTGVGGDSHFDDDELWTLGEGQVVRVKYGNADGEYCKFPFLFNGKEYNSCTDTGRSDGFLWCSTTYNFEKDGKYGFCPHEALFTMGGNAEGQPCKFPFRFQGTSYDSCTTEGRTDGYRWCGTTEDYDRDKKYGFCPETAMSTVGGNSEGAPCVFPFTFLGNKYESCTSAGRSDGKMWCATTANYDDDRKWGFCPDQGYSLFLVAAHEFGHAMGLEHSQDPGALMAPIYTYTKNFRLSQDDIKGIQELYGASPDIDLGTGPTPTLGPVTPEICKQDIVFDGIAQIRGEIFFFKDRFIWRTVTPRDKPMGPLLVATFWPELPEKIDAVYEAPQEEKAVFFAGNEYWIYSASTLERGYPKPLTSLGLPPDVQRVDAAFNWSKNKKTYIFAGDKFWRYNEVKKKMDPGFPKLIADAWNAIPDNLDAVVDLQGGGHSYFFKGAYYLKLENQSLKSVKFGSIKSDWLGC
Procedure: as §1

tumor invasion = assay: In vitro model of tumor invasion (Boyden chamber, reconstituted basement membrane); type: cell-based; conditions: read-out: % Invasion-Inhibition by 50 μM drug
Procedure: The compound was also evaluated in an in vivo experimental model of metastasis using B16F10 tumor cells in C57B1 mice. […] The assay was carried out in a Boyden chamber with a reconstituted basement membrane (Matrigal).

MMP-2 [2] = target: T7, MMP-2; assay: Time dependent inhibition of MMP-2 (period of inhibition); type: biochemical
B16F10 tumor cells = assay: Murine melanoma model of experimental metastasis; type: in vivo, C57B1 mice; conditions: for % reduction in lung metastases relative to control: daily for three weeks, B16F10 cells i.v.
[3] = mouse, in vivo

T1 sequence (P08254 100-477): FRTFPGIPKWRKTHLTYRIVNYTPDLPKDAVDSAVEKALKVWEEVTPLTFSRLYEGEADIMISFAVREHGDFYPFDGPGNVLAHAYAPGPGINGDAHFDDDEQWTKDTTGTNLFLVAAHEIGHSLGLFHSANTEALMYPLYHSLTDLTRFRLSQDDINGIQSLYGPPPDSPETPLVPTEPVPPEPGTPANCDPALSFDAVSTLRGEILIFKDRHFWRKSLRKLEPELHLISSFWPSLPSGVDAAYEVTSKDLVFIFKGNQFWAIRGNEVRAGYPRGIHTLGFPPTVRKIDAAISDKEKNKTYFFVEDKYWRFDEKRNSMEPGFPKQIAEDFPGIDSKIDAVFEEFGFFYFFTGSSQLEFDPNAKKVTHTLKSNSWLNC
T6 sequence (P78536 215-824): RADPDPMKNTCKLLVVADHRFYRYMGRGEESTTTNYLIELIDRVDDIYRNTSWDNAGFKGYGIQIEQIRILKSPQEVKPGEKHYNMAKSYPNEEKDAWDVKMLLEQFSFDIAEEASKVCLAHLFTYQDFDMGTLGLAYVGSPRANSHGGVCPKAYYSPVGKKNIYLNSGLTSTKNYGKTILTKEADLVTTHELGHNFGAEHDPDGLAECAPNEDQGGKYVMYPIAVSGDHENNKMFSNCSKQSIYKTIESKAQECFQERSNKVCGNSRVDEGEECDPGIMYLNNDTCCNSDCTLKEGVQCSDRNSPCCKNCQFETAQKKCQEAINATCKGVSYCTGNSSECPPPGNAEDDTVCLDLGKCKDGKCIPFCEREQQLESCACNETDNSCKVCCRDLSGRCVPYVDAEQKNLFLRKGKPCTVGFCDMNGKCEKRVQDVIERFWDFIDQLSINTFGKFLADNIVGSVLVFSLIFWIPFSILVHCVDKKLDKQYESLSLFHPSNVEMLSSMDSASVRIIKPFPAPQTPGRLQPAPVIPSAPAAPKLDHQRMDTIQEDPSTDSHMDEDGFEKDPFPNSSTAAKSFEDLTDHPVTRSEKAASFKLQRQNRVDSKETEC
T4 sequence (P39900 106-470): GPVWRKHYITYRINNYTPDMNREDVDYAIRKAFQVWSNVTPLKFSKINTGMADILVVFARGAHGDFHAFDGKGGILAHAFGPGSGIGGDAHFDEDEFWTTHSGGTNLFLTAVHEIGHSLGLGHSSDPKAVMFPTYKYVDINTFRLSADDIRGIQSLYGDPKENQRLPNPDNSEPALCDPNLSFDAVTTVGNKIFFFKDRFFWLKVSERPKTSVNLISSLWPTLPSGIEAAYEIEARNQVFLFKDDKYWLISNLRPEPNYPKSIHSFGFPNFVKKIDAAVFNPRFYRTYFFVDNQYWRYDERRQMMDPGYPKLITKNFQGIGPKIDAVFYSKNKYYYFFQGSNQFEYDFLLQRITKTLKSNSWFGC
T2 sequence (P22894 101-467): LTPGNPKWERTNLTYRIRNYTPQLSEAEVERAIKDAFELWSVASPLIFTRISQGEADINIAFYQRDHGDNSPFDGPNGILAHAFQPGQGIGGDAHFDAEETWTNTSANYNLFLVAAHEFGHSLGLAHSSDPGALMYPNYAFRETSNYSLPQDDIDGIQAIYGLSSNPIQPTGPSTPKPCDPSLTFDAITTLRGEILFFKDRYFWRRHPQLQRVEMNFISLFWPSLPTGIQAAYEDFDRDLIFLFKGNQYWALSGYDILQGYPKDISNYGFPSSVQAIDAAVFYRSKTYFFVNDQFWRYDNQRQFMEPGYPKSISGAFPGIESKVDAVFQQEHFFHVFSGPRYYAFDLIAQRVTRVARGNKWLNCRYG
T3 sequence (P14780 94-707): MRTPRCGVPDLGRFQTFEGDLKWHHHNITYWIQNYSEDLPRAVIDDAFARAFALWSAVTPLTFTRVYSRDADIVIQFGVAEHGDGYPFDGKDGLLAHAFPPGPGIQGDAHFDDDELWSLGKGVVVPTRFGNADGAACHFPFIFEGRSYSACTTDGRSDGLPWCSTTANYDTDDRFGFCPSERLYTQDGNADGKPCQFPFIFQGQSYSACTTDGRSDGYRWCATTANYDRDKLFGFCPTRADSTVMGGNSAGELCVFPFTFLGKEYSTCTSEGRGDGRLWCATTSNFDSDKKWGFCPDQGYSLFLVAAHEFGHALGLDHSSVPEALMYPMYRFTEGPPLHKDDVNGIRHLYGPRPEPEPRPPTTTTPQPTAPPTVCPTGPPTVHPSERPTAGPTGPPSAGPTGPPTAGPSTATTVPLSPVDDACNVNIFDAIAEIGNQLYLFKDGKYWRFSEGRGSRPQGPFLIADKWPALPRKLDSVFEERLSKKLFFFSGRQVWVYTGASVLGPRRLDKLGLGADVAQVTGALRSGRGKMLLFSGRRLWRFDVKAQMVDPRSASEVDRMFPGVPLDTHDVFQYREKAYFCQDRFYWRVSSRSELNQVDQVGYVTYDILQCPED

SMILES | IC50 (human MMP-8; read-out: IC50 (μM) on MMP-8) | IC50 (human MMP-9; read-out: IC50 (μM) on MMP-9) | IC50 (TACE; read-out: IC50 (μM) on TACE) | Duration of inhibitory effect (MMP and/or ADAM enzyme) | IC50 (MMP-2 [1]; read-out: IC50 (μM) on MMP-2) | IC50 (human MMP-3; read-out: IC50 (μM) on MMP-3) | IC50 (human MMP-12; read-out: IC50 (μM) on MMP-12) | IC50 (human MMP-13; read-out: IC50 (μM) on MMP-13) | inhibition at 50 µM (tumor invasion) | also measured
NC(CNC(=O)P(=O)(O)O)CNS(=O)(=O)c1ccc(Oc2ccccc2)cc1 (racemic) [Compound 8, 2-amino-1-(4-phenoxybenzenesulfonamido)-3-[phosphonoformamido]propane] | 12 µM | 12 µM | 12 µM | >180 min | 15 µM | > 100 µM | 15 µM | > 100 µM |  | duration of affinity to all the enzymes inhibited (MMP and/or ADAM enzyme): > 3 h
N[C@H]1CCCC[C@H]1NC(=O)P(=O)(O)O (relative stereo) [YK-162, cis-2-aminocyclohexylcarbamoyl phosphonic acid, reference compound] |  |  |  | <30 min |  |  |  |  | 15% | IC50 (human MMP-3): > 100 µM; IC50 (human MMP-8): > 100 µM; IC50 (human MMP-9): 20 µM; IC50 (human MMP-12): > 100 µM; IC50 (human MMP-13): > 100 µM; IC50 (TACE): > 100 µM; period of MMP-2 inhibition (MMP-2 [2]; MMP-2): about 30 minutes; IC50 (MMP-2 [1]): 4 µM
O=C(NCCNS(=O)(=O)c1ccc(Oc2ccccc2)cc1)P(=O)(O)O [Compound 1, 1-[4-phenoxybenzenesulfonamido]-2-[phosphonoformamido]ethane] | > 100 µM | > 100 µM | 6 µM | >180 min | 15 µM | > 100 µM | 60 µM | 55 µM | 70% | activity against MMP-3 (human MMP-3): reduced or no activity; activity against MMP-8 (human MMP-8): reduced or no activity; activity against MMP-9 (human MMP-9): reduced or no activity; activity against TACE (TACE): moderate activity; period as active inhibitor (time dependent inhibition, FIG. 1) (MMP-2 [2]): at least 3 hours; inhibition in metastasis formation (number of metastatic foci in the lung) (B16F10 tumor cells; B16F10 tumor cells in C57B1 mice): > 80%
O=C(NCCCNS(=O)(=O)c1ccc(Oc2ccccc2)cc1)P(=O)(O)O [Compound 2, 1-[4-phenoxybenzenesulfonamido]-3-[phosphonoformamido]propane] | > 100 µM | > 100 µM | > 100 µM | >180 min | 10 µM | 35 µM | > 100 µM | 25 µM | 49% | melting point: 165 to 168 °C
O=C(NCCCCNS(=O)(=O)c1ccc(Oc2ccccc2)cc1)P(=O)(O)O [Compound 3, 1-[4-phenoxybenzenesulfonamido]-4-[phosphonoformamido]butane] | > 100 µM | > 100 µM | > 100 µM | >180 min | 7 µM | > 100 µM | > 100 µM | 25 µM | 60% | melting point: 143 to 145 °C
O=C(NCCCCCNS(=O)(=O)c1ccc(Oc2ccccc2)cc1)P(=O)(O)O [Compound 4] | > 100 µM | > 100 µM | > 100 µM |  | 5 µM | > 100 µM | 80 µM | 60 µM | 62% | inhibition of metastasis formation (B16F10 tumor cells; 50 mg/kg): > 80%; % reduction in lung metastases relative to control (B16F10 tumor cells; Intraperitoneal, 25 mg/kg): 76%; % reduction in lung metastases relative to control (B16F10 tumor cells; Intraperitoneal, 50 mg/kg): 90%; % reduction in lung metastases relative to control (B16F10 tumor cells; Per-oral, 50 mg/kg): 80%; % reduction in lung metastases relative to control (B16F10 tumor cells; Per-oral, 150 mg/kg): 86%
O=C(NCCCCCCNS(=O)(=O)c1ccc(Oc2ccccc2)cc1)P(=O)(O)O [Compound 5, 1-[4-Phenoxybenzenesulfonamido]-6-[phosphonoformamido]hexane] | > 100 µM | > 100 µM | 20 µM |  | 5 µM | > 100 µM | > 100 µM | 80 µM | 77% | % reduction in lung metastases relative to control (B16F10 tumor cells; Intraperitoneal, 25 mg/kg): 90%; % reduction in lung metastases relative to control (B16F10 tumor cells; Per-oral, 50 mg/kg): 50%; % reduction in lung metastases relative to control (B16F10 tumor cells; Per-oral, 150 mg/kg): 86%; toxic effects in mice [3]: without any toxic effects; toxicity in mice (text, FIG. 5) [3]: toxic; Toxicity in mice (Table 4) ([3]; ip, 50 mg/kg): Toxic
O=C(NCCCCCCCNS(=O)(=O)c1ccc(Oc2ccccc2)cc1)P(=O)(O)O [Compound 6] | > 100 µM | > 100 µM | 22 µM | >180 min | > 100 µM | > 100 µM | > 100 µM | > 100 µM |  | 
O=C(NCCCCCCCCNS(=O)(=O)c1ccc(Oc2ccccc2)cc1)P(=O)(O)O [Compound 7] | > 100 µM | > 100 µM | 17 µM | >180 min | > 100 µM | > 100 µM | > 100 µM | > 100 µM |  | 
O=C(NCCNCCNS(=O)(=O)c1ccc(Oc2ccccc2)cc1)P(=O)(O)O [Compound 10, N-{2-[2-(4-Phenoxybenzenesulfonylamino)-ethylamino]-ethyl}-carbamoylphosphonic acid] | > 100 µM | > 100 µM | > 100 µM | >180 min | 20 µM | > 100 µM |  |  |  | melting point: 224 to 225 °C

More lines, main results first:

IC50 (human MMP-8; read-out: IC50 (μM) on MMP-8) | IC50 (human MMP-9; read-out: IC50 (μM) on MMP-9) | IC50 (TACE; read-out: IC50 (μM) on TACE) | Duration of inhibitory effect (MMP and/or ADAM enzyme) | IC50 (MMP-2 [1]; read-out: IC50 (μM) on MMP-2) | SMILES | IC50 (human MMP-3; read-out: IC50 (μM) on MMP-3) | IC50 (human MMP-12; read-out: IC50 (μM) on MMP-12) | IC50 (human MMP-13; read-out: IC50 (μM) on MMP-13) | inhibition at 50 µM (tumor invasion) | also measured
15 µM | > 100 µM | > 100 µM | >180 min | 20 µM | N[C@H](CNC(=O)P(=O)(O)O)CNS(=O)(=O)c1ccc(Oc2ccccc2)cc1 [Compound 8R, (R)-N-[2-amino-3-(4-phenoxybenzenesulfonamido)propyl]carbamoylphosphonic acid] | > 100 µM | 12 µM | > 100 µM | > 100% | 
> 100 µM | > 100 µM | > 100 µM | >180 min | 15 µM | N[C@@H](CNC(=O)P(=O)(O)O)CNS(=O)(=O)c1ccc(Oc2ccccc2)cc1 [Compound 8S, (S)-N-[2-amino-3-(4-phenoxybenzenesulfonamido)propyl]carbamoylphosphonic acid] |  | > 100 µM | > 100 µM | > 100% | 
